According to patent US7662404B2, “Transdermal delivery system for dried particulate or lyophilized peptides and polypeptides” (TransPharma Medical Ltd., priority 2002, dated 2010):
Where “and” joins values, the source holds several entries; their conditions need not be identical. Equal entries are not always repeated. Where two headings read alike, the source gives them in different places.

Tests used:
[1] = Plasma hPTH (1-34) in female adult healthy human volunteers, ViaDerm and printed patches or SC (Example 13); assay type: in vivo; set-up: AUC (individual subjects): unit not given here; conditions: for AUC (individual subjects) / Cmax (individual subjects) / AUC: 12 h; for Cmax (individual subjects): women; for AUC / Tmax / Cmax: female, human, plasma
Procedure: Transdermal drug delivery study of hPTH (1-34) in four female adult healthy human volunteers was performed using ViaDerm and printed patches.
To evaluate the transdermal delivery of hPTH (1-34), printed patches containing 100 μg or 200 μg hPTH (1-34) (FORTEO®, Teriparatide purchased from Ely Lilly, Indianapolis, Ind., USA) were prepared. Patch area was 1.44 cm^2.
ViaDerm parameters: electrode array of 75 or 100 micro-channels/cm^2; ViaDerm was applied two or three times generating micro-channels at a density of 150 or 300 micro-channels/cm^2; Voltage: 290 volts, constant voltage; Burst length: 5000 μsec; Maximal current: 50 mA.
(§1) Each female adult received five treatments of hPTH (1-34) with a minimum of 2 day clearance between treatments. The treatments were as follows: • 1. Three ViaDerm applications (final density of 300 micro-channels/cm^2) on one site of the upper arm. Two printed patches, each containing 100 μg hPTH (1-34), were placed over the application area (each for 6 hours). • 2. Two ViaDerm applications (final density of 150 micro-channels/cm^2) on one site of the upper arm. Two printed patches, each containing 200 μg hPTH (1-34), were placed over the application area. • 3. Three ViaDerm applications (final density of 300 micro-channels/cm^2) on one site of the upper arm. Two printed patches, each containing 200 μg hPTH (1-34), were placed over the application area. • 4. Subcutaneous (SC) injection of 20 μg hPTH (1-34) (FORTEO®, Teriparatide was purchased from Ely Lilly, Indianapolis, Ind., USA). • 5. SC injection of 60 μg hPTH (1-34) (FORTEO®).
(§2) Plasma hPTH (1-34), calcium ions and phosphate ions were determined by Eliza using commercial kits.

[2] = test system: plasma calcium ions and phosphorous; test: Plasma calcium ions and phosphorus in women after hPTH (1-34) (Example 13); assay type: in vivo, human; conditions: four women, all transdermal and SC treatments
Procedure: as §1, §2

Cmax AVG ([1]; T-3: 300 micro-channels/cm^2, 2 printed patches each 200 μg, mean of 4 women): 0.651347 ng/mL | Tmax (individual subjects) ([1]; T-4: SC injection of 20 μg): 6.0 h and 0.3 h and 0.5 h | AUC (individual subjects) ([1]; T-4: SC injection of 20 μg): 172 and 158 and 176 | Cmax AVG ([1]; T-4: SC injection of 20 μg, mean of 4 women): 0.029291 ng/mL | Tmax (individual subjects) ([1]; T-5: SC injection of 60 μg): 0.5 h | AUC (individual subjects) ([1]; T-5: SC injection of 60 μg): 84 and 100 and 474 and 399 | Cmax AVG ([1]; T-5: SC injection of 60 μg, mean of 4 women): 0.111514 ng/mL | AUC ([1]; 100 ug, T-1: 300 micro-channels/cm^2, 2 printed patches each 100 μg, mean of 4 women, read-out: AUC AVG): 0.963 ng·h/mL | Tmax ([1]; 100 ug, T-1: 300 micro-channels/cm^2, 2 printed patches each 100 μg, read-out: Tmax (individual subjects)): 1 h | Cmax ([1]; other: transdermal printed patch on ViaDerm-treated skin, 100 ug, T-1: 300 micro-channels/cm^2, 2 printed patches each 100 μg, mean of 4 women): 0.331 ng/mL | Tmax ([1]; other: transdermal printed patch on ViaDerm-treated skin, 100 ug, T-1: 300 micro-channels/cm^2, 2 printed patches each 100 μg, mean of 4 women, read-out: Tmax AVG): 1.5 h | AUC ([1]; other: transdermal printed patch on ViaDerm-treated skin, 200 ug, T-2: 150 micro-channels/cm^2, 2 printed patches each 200 μg, mean of 4 women, read-out: AUC AVG): 1.94 ng·h/mL | Cmax ([1]; other: transdermal printed patch on ViaDerm-treated skin, 200 ug, T-2: 150 micro-channels/cm^2, 2 printed patches each 200 μg, mean of 4 women): 0.642 ng/mL | Tmax ([1]; other: transdermal printed patch on ViaDerm-treated skin, 200 ug, T-2: 150 micro-channels/cm^2, 2 printed patches each 200 μg, mean of 4 women, read-out: Tmax AVG): 2.1 h | Tmax ([1]; other: transdermal printed patch on ViaDerm-treated skin, 200 ug, T-2: 150 micro-channels/cm^2, 2 printed patches each 200 μg, read-out: Tmax (individual subjects)): 1.5 h | AUC ([1]; other: transdermal printed patch on ViaDerm-treated skin, 200 ug, T-3: 300 micro-channels/cm^2, 2 printed patches each 200 μg, mean of 4 women, read-out: AUC AVG): 2.03 ng·h/mL | Cmax ([1]; other: transdermal printed patch on ViaDerm-treated skin, 200 ug, T-3: 300 micro-channels/cm^2, 2 printed patches each 200 μg, mean of 4 women): 0.651 ng/mL | Tmax ([1]; other: transdermal printed patch on ViaDerm-treated skin, 200 ug, T-3: 300 micro-channels/cm^2, 2 printed patches each 200 μg, mean of 4 women, read-out: Tmax AVG): 2 h | Tmax ([1]; other: transdermal printed patch on ViaDerm-treated skin, 200 ug, T-3: 300 micro-channels/cm^2, 2 printed patches each 200 μg, read-out: Tmax (individual subjects)): 2.5 h | AUC ([1]; sc, 20 ug, T-4: SC injection of 20 μg, mean of 4 women, read-out: AUC AVG): 0.152 ng·h/mL | AUC ([1]; sc, 20 ug, T-4: SC injection of 20 μg, read-out: AUC (individual subjects)): 0.103 ng·h/mL | Cmax ([1]; sc, 20 ug, T-4: SC injection of 20 μg, mean of 4 women): 0.022 ng/mL | Tmax ([1]; sc, 20 ug, T-4: SC injection of 20 μg, mean of 4 women, read-out: Tmax AVG): 1.8 h | AUC ([1]; sc, 60 ug, T-5: SC injection of 60 μg, mean of 4 women, read-out: AUC AVG): 0.264 ng·h/mL | Cmax ([1]; sc, 60 ug, T-5: SC injection of 60 μg, mean of 4 women): 0.115 ng/mL | Tmax ([1]; sc, 60 ug, T-5: SC injection of 60 μg, mean of 4 women, read-out: Tmax AVG): 0.8 h | Tmax ([1]; sc, 60 ug, T-5: SC injection of 60 μg, read-out: Tmax (individual subjects)): 1 h
Structure (SMILES): CC[C@H](C)[C@H](NC(=O)[C@H](CCC(=O)O)NC(=O)[C@H](CO)NC(=O)[C@@H](NC(=O)[C@@H](N)CO)C(C)C)C(=O)N[C@@H](CCC(N)=O)C(=O)N[C@@H](CC(C)C)C(=O)N[C@@H](CCSC)C(=O)N[C@@H](Cc1cnc[nH]1)C(=O)N[C@@H](CC(N)=O)C(=O)N[C@@H](CC(C)C)C(=O)NCC(=O)N[C@@H](CCCCN)C(=O)N[C@@H](Cc1cnc[nH]1)C(=O)N[C@@H](CC(C)C)C(=O)N[C@@H](CC(N)=O)C(=O)N[C@@H](CO)C(=O)N[C@@H](CCSC)C(=O)N[C@@H](CCC(=O)O)C(=O)N[C@@H](CCCN=C(N)N)C(=O)N[C@H](C(=O)N[C@@H](CCC(=O)O)C(=O)N[C@@H](Cc1c[nH]c2ccccc12)C(=O)N[C@@H](CC(C)C)C(=O)N[C@@H](CCCN=C(N)N)C(=O)N[C@@H](CCCCN)C(=O)N[C@@H](CCCCN)C(=O)N[C@@H](CC(C)C)C(=O)N[C@@H](CCC(N)=O)C(=O)N[C@@H](CC(=O)O)C(=O)N[C@H](C(=O)N[C@@H](Cc1cnc[nH]1)C(=O)N[C@@H](CC(N)=O)C(=O)N[C@@H](Cc1ccccc1)C(=O)O)C(C)C)C(C)C [hPTH (1-34)]
Cmax (individual subjects) ([1]; T-4: SC injection of 20 μg): 0.012196 ng/mL and 0.037556 ng/mL and 0.02935 ng/mL and 0.038062 ng/mL | Cmax (individual subjects) ([1]; T-5: SC injection of 60 μg): 0.059209 ng/mL and 0.066482 ng/mL and 0.185324 ng/mL and 0.13504 ng/mL | plasma concentrations of calcium ions [2]: elevation of calcium ions | plasma concentrations of phosphorus [2]: decrease of phosphorous
